{"source": "patent US20220249504A1", "about": "“LONGEVITY SIGNATURES AND THEIR APPLICATIONS” (The Brigham and Women's Hospital, Inc., priority 2019, published 2022)", "format_in_all_cases": "in vivo, mouse", "key": {"C57BL/6 mice [1]": {"tested_on": "C57BL/6 mice", "experiment": "Glucose tolerance in old C57BL/6 mice on compound diet", "conditions": "old C57BL/6 mice at the dose given in diet (AZD-8055: 23-month-old, treated 2.5 months)", "experimental": "23-month-old mice were treated for 2.5 months prior to analyses."}, "C57BL/6 mice [2]": {"tested_on": "C57BL/6 mice", "experiment": "Frailty index of old C57BL/6 mice on compound diet", "experimental": "(§1) Briefly, 24-28 mice per intervention were used, with an approximately equal number of males and females. Mice were first assessed with regard to frailty index and gait speed, and then randomized to make sure the experimental and control groups had the same average frailty index and gait speed. Mice were then given a diet containing a compound of interest. […] Mice were monitored daily until they died. A separate cohort of old mice was assessed for frailty index and gait speed.\nas §1, with “females. They” for “females. Mice”"}, "C57BL/6 mice [3]": {"tested_on": "C57BL/6 mice", "experiment": "Gait speed of old C57BL/6 mice on compound diet", "conditions": "31-month-old C57BL/6 male mice", "experimental": "as §1\nas §1, with “females. They” for “females. Mice”"}, "longevity signatures": {"tested_on": "longevity signatures", "experiment": "GSEA-based association of hepatic gene expression response (RNAseq, UM-HET3 mice on compound diet for 1 month) with longevity signatures", "conditions": "UM-HET3 male mice, compound in diet for 1 month, liver RNAseq", "from_the_text": "Four-month old UM-HET3 mice were subjected to diets for 1 month, followed by gene expression analyses.\nTo validate the above approach and predictions, specific gene expression datasets were chosen from the GEO database that correspond to the effect of certain interventions considered to be health- and lifespan-extending or shortening on mouse liver (FIG. 16). […] UM-HET3 mice were then subjected to these compounds for 1 month, at which point the mice were sacrificed and subjected to gene expression analysis. Finally, the association GSEA-based test was applied to validate the findings (FIG. 16).\nSecond, diets were prepared for 24 of the identified compounds. These diets were administered to mice for 1 month, and ensuing gene expression changes were monitored. […]\nFor samples corresponding to lifespan-extending interventions, paired-end sequencing with 100 bp read length was performed on illumine HiSeq2000 platform. For samples corresponding to predicted compounds, libraries were prepared as described in (Hashimshony et al., 2016) and sequenced with 100 bp read length option on the Illumina HiSeq2500. […] Processed/cleaned reads were then mapped with STAR (version 2.5.2b) (Dobin et al., 2013) and counted via featureCounts (Liao et al., 2014). […]"}, "C57BI/6 mice": {"tested_on": "C57BI/6 mice", "experiment": "Lifespan of old (2-year-old) C57BL/6 mice given a diet containing the compound", "experimental": "as §1\nInterventions were predicted in a screen based on the gene expression longevity signatures that we developed. The predicted interventions were then verified for gene expression responses in human and mouse primary cell culture (hepatocytes) and in live mice (after mice were fed for 1 month with the diets containing these interventions). The interventions that passed these tests were further assessed for the effect on lifespan of 2-year-old C57BI/6 mice. Older mice (2-year-old) were chosen for this experiment in order to mimic the effect of giving interventions to human subjects in their second half of life.\nas §1, with “females. They” for “females. Mice”"}, "[4]": {"tested_on": "immune cells in the spleen", "experiment": "Population of immune cells in the spleen by FACS", "conditions": "27-month-old C57BI/6 females", "experimental": "Population of immune cells in the spleen is not altered by Selumetinib (n=7 for Control, n=12 for Selumetinib). 27-month-old C57BI/6 females were used. Cells were analyzed by FACS: B-cells are CD45+CD19+, T-cells are CD45+CD3+, and myeloid cells are CD45+CD11b+."}}, "note": "“Also recorded” adds a separate entry of the source.", "data": [{"smiles": "COc1ccc(-c2ccc3c(N4CCOCC4)nc(N4C[C@@H](C)O[C@@H](C)C4)nc3n2)cc1CO", "note": "[KU-0063794, rel-5-[2-[(2R,6S)-2,6-dimethyl-4-morpholinyl]-4-(4-morpholinyl)pyrido[2,3-d]pyrimidin-7-yl]-2-methoxybenzenemethanol]", "values": [{"measurement": "Effect on glucose tolerance", "setting": "C57BL/6 mice [1]", "result": "No effect; also recorded: did not have a significant effect"}, {"measurement": "Effect on frailty index", "setting": "C57BL/6 mice [2]; 31-month-old C57BL/6 male mice", "result": "improved"}, {"measurement": "Effect on gait speed", "setting": "C57BL/6 mice [3]", "result": "improved"}, {"measurement": "Association of hepatic gene expression response with longevity signatures", "setting": "longevity signatures", "result": "consistent positive association with all lifespan-extending interventions, except for rapamycin"}, {"measurement": "Effect on lifespan", "setting": "C57BI/6 mice; C57BL/6 male mice, given late in life, ad libitum in diet (AZD-8055 20 mg/kg of food, LY294002 600 mg/kg, KU-0063794 10 mg/kg of diet)", "result": "extend lifespan"}]}, {"smiles": "Cn1cnc2c(F)c(Nc3ccc(Br)cc3Cl)c(C(=O)NOCCO)cc21", "note": "[Selumetinib, 6-(4-Bromo-2-chloroanilino)-7-fluoro-N-(2-hydroxyethoxy)-3-methylbenzimidazole-5-carboxamide]", "values": [{"measurement": "Effect on frailty index", "setting": "C57BL/6 mice [2]; 31-month-old C57BL/6 female mice", "result": "improves"}, {"measurement": "Relative populations of immune cells in the spleen (B-cells, T-cells, myeloid cells)", "setting": "[4]", "result": "not altered; also recorded: does not alter"}, {"measurement": "Effect on lifespan", "setting": "C57BI/6 mice; C57BL/6 mice (Selumetinib: males and females combined), given late in life, ad libitum (Selumetinib 100 mg/kg of diet, Celastrol 8 mg/kg of food)", "result": "extends lifespan"}, {"measurement": "Effect on lifespan", "setting": "C57BI/6 mice; independent cohort of female C57BL/6 mice, Selumetinib 100 mg/kg of diet", "result": "extends lifespan"}]}, {"smiles": "C1COC(NC(C2CC2)C2CC2)=N1", "note": "[rilmenidine, N-(Dicyclopropylmethyl)-4,5-dihydro-1,3-oxazol-2-amine]", "values": [{"measurement": "Association of hepatic gene expression response with longevity signatures", "setting": "longevity signatures", "result": "positive association with some of the signatures, including CR and GH deficiency, but not with the signatures associated with the lifespan extension effect"}]}]}
